Among the data in ChEMBL document CHEMBL1821715, “Synthesis, characterization and pharmacological activity of 4-{[1-substituted aminomethyl-4-arylideneamino-5-sulfanyl-4,5-dihydro-1H-1,2,4-triazol-3-yl]methyl}-2H-1,4-benzothiazin-3(4H)-ones” (2011) are Time and Activity values, retold here.

Common to all, as to assay type: functional
The test system of experiment [1] is Rattus norvegicus. The experiment is described as follows: Analgesic activity in Wistar albino rat assessed as reaction time required for tail flicking at 20 mg/kg after 30 mins by tail-flick method relative to control. A general note: Thermal pain tests record how soon the animal reacts.
Experiment [2] relates to Rattus norvegicus. The experiment is described as follows: Analgesic activity in Wistar albino rat assessed as reaction time required for tail flicking at 20 mg/kg after 90 mins by tail-flick method relative to control.
In experiment [3] the test system is Rattus norvegicus. In words: Antiinflammatory activity in Wistar albino rat assessed as reduction of carrageenan-induced paw volume at 20 mg/kg, po administered 30 mins before carrageenan challenge measured after 0.5 hr relative to control. Set-up: scale not given: the % may be the effect or the level left. Background: The carrageenan paw model is a standard test of acute inflammation.

The test system of experiment [4] is Rattus norvegicus. The experiment is described as follows: Antiinflammatory activity in Wistar albino rat assessed as reduction of carrageenan-induced paw volume at 20 mg/kg, po administered 30 mins before carrageenan challenge measured after 1 hr relative to control. Set-up: scale not given: the % may be the effect or the level left.
The test system of experiment [5] is Rattus norvegicus. In words: Analgesic activity in Wistar albino rat assessed as reaction time required for tail flicking at 20 mg/kg after 60 mins by tail-flick method relative to control.
In experiment [6] the test system is Rattus norvegicus. The experiment is described as follows: Antiinflammatory activity in Wistar albino rat assessed as reduction of carrageenan-induced paw volume at 20 mg/kg, po administered 30 mins before carrageenan challenge measured after 2 hrs relative to control. Set-up: scale not given: the % may be the effect or the level left.

Molecules are shown by their SMILES.

Take `O=C(O)CN1C(=O)CSc2ccccc21`: the results for the Time in experiment [1], in experiment [2] and in experiment [5] were 5.775 s, 6.875 s and 6.5 s, respectively. The Activity in experiment [3] is given as 38.51%; in experiment [4], 30.07%; in experiment [6], 27.93%.

As for `CN1CCN(Cn2nc(CN3C(=O)CSc4ccccc43)n(/N=C/c3ccccc3)c2=S)CC1`, the results for the Time in experiment [1], in experiment [2] and in experiment [5] were 3.5 s, 4.225 s and 4.3 s, respectively. The Activity is 8.1% in experiment [3], 9.8% in experiment [4] and 10.39% in experiment [6].

As for `O=C1CSc2ccccc2N1Cc1nn(CN2CCOCC2)c(=S)n1/N=C/c1ccccc1`, the values for the Time in experiment [1], in experiment [2] and in experiment [5] were 3.175 s, 3.4 s and 3.375 s, respectively. Moreover, the Activity in experiment [3] is reported as 5.4%; in experiment [4], 10.13%; in experiment [6], 10.39%.

For the compound `O=C1CSc2ccccc2N1Cc1nn(CN2CCCCC2)c(=S)n1/N=C/c1ccccc1`, the figures for the Time in experiment [1], in experiment [2] and in experiment [5] were 3.925 s, 5.5 s and 5.3 s, respectively. The Activity amounted to 40.21% in experiment [3], 41.18% in experiment [4] and 41.23% in experiment [6].

With `CN1CCN(Cn2nc(CN3C(=O)CSc4ccccc43)n(/N=C/c3ccc([N+](=O)[O-])cc3)c2=S)CC1`, the Time in experiment [1] is reported as 5.475 s; in experiment [2] it was 6.05 s; in experiment [5], 5.975 s. The Activity in experiment [3] came to 33.11%; in experiment [4] it was 40.53%; in experiment [6] it was 37.34%.

Regarding `O=C1CSc2ccccc2N1Cc1nn(CN2CCOCC2)c(=S)n1/N=C/c1ccc([N+](=O)[O-])cc1`, the Time in experiment [1] is listed as 5.425 s; in experiment [2], 6.025 s; in experiment [5], 6.05 s. The Activity in experiment [3] came to 37.84%; in experiment [4] it was 42.16%; in experiment [6], 31.82%.

Take `O=C1CSc2ccccc2N1Cc1nn(CN2CCCCC2)c(=S)n1/N=C/c1ccc([N+](=O)[O-])cc1`: the figures for the Time in experiment [1], in experiment [2] and in experiment [5] were 5.1 s, 4.875 s and 5.3 s, respectively. Besides, the values for the Activity in experiment [3], in experiment [4] and in experiment [6] were 52.71%, 55.56% and 58.77%, respectively.

`CN1CCN(Cn2nc(CN3C(=O)CSc4ccccc43)n(/N=C/c3ccc(Cl)cc3)c2=S)CC1`: the Time stood at 4.575 s in experiment [1], 5 s in experiment [2] and 5.375 s in experiment [5]. The figures for the Activity in experiment [3], in experiment [4] and in experiment [6] were 38.51%, 44.12% and 42.86%, respectively.

On to `O=C1CSc2ccccc2N1Cc1nn(CN2CCOCC2)c(=S)n1/N=C/c1ccc(Cl)cc1`, for which the Time in experiment [1] is 4.8 s; in experiment [2] it was 4.075 s; in experiment [5] it was 4.875 s. Further, the Activity is 28.04% in experiment [3], 32.35% in experiment [4] and 29.55% in experiment [6].

For `O=C1CSc2ccccc2N1Cc1nn(CN2CCOCC2)c(=S)n1/N=C/c1ccc(O)cc1`, the Time came out at 4.3 s in experiment [1], 6 s in experiment [2] and 5 s in experiment [5]. Further, the Activity in experiment [3] amounted to 53.38%; in experiment [4] it was 45.1%; in experiment [6], 38.97%.

Turning to `CC(C)=CCN1CC[C@]2(C)c3cc(O)ccc3C[C@H]1[C@H]2C` [(+)-PENTAZOCINE], the figures for the Time in experiment [1], in experiment [2] and in experiment [5] were 6.4 s, 7.45 s and 7.175 s, respectively.

Consider `COc1ccc2c(c1)c(CC(=O)O)c(C)n2C(=O)c1ccc(Cl)cc1` [INDOMETHACIN], for which the Activity in experiment [3] is on record as 66.89%; in experiment [4] it was 70.26%; in experiment [6], 69.81%.
